{"source": "patent US12274711B2", "about": "“Method of determining Acute Myeloid Leukemia response to treatment with farnesyltransferase inhibitors” (Janssen Pharmaceutica NV, priority 2010, dated 2025)", "key": {"[1]": {"test_system": "previously untreated, poor-risk AML", "experiment": "Phase 2 study of tipifarnib in older adults with previously untreated, poor-risk AML (clinical response, overall survival)", "type": "in vivo, human", "source_text": "In an exemplary example, bone marrow samples are collected from an open label, multicenter, non-comparative phase 2 study investigating the efficacy and safety of farnesyltransferase inhibition with tipifarnib (R115777, ZARNESTRA®) in older adults with previously untreated, poor-risk AML.\nBriefly, HI was defined as any bone marrow blast count less than 5% or a reduction in bone marrow blasts by at least half. Progressive disease (PD) was defined as either >50% increase in bone marrow or circulating blast % from baseline, or new appearance of circulating blasts (on at least 2 consecutive occasions). Stable disease (SD) was defined as any response not meeting CR, PR, HI, or PD criteria.\nThis study examined gene expression profiles of leukemic bone marrow samples from patients enrolled in a Phase 2 clinical trial of the farnesyltransferase inhibitor tipifarnib in elderly patients with previously untreated poor-risk acute myelogenous leukemia. Lancet et al. (2006). Bone marrow from 67 patients was collected before treatment with tipifarnib and leukemic myeloid cells were enriched by Ficoll-density centrifugation (Table 1). Good quality total RNA from 13 responders (9 CR, 4 HI), 8 stable disease and 13 progressive disease patients was amplified, labeled, and hybridized to the Affymetrix U133A GeneChip. A total of 30 samples were evaluated by qPCR for validation of specific genes and 32 samples were evaluated for N-RAS mutational status."}, "relapsed/refractory AML": {"test_system": "relapsed/refractory AML", "experiment": "Independent dataset of 54 relapsed/refractory AML patients treated with tipifarnib", "type": "in vivo, human", "conditions": "54 relapsed/refractory AML patient samples", "procedure": "External validation of the TSP classifier was performed in an independent microarray dataset comprising of 54 relapsed/refractory AML patient samples. A diagnostic assay that predicts likely response to a cancer therapy should have a high sensitivity (and negative predictive value) since it is important to capture as many potential responders as possible. Therefore, to define an appropriate cutoff for testing the TSP classifier the need to obtain a high sensitivity of predicting responders while maintaining an acceptable level of specificity was considered. In the training set, the level of specificity that could be achieved ranged from approximately 30% to 100% when the sensitivity was set at 100% to 80%, respectively. To ensure the classifier would predict as many responders as possible a conservative cutoff that provided a specificity of approximately 60% in the training set was tested. When this cutoff was applied to the independent testing set of relapsed/refractory AML, the RASGRP1:APTX gene classifier stratified responders with 92% NPV and 27.6% PPV (compared to 18.5% prevalence) (FIG. 3C). The associated odds ratio for being a responder was 4.38."}, "[2]": {"conditions": "Kaplan Meier analysis, RASGRP1 classifier, newly diagnosed AML (FIG. 1B)"}, "[3]": {"conditions": "qPCR RASGRP1:APTX classifier, cut-point 0, 30 patients (FIG. 3C)"}}}
{"smiles": "Cn1cncc1[C@@](N)(c1ccc(Cl)cc1)c1ccc2c(c1)c(-c1cccc(Cl)c1)cc(=O)n2C", "note": "[tipifarnib]", "values": [{"measurement": "CR, (%)", "setting": "[1]; All treated patients (n=158)", "result": "(14) %"}, {"measurement": "CR, no.", "setting": "[1]; All treated patients (n=158)", "result": 22}, {"measurement": "HI, (%)", "setting": "[1]; All treated patients (n=158)", "result": "(8) %"}, {"measurement": "HI, no.", "setting": "[1]; All treated patients (n=158)", "result": 12}, {"measurement": "PD, (%)", "setting": "[1]; All treated patients (n=158)", "result": "(37) %"}, {"measurement": "PD, no.", "setting": "[1]; All treated patients (n=158)", "result": 58}, {"measurement": "PR, (%)", "setting": "[1]; All treated patients (n=158)", "result": "(2) %"}, {"measurement": "PR, no.", "setting": "[1]; All treated patients (n=158)", "result": 3}, {"measurement": "median overall survival of the responders", "setting": "[1]; [2]", "result": 386, "unit": "days"}, {"measurement": "median overall survival of those with progressive disease", "setting": "[1]; [2]", "result": 68, "unit": "days"}, {"measurement": "CR, (%)", "setting": "[1]; PGx profiled patients (n=67)", "result": "(21) %"}, {"measurement": "CR, no.", "setting": "[1]; PGx profiled patients (n=67)", "result": 14}, {"measurement": "HI, (%)", "setting": "[1]; PGx profiled patients (n=67)", "result": "(10) %"}, {"measurement": "HI, no.", "setting": "[1]; PGx profiled patients (n=67)", "result": 7}, {"measurement": "PD, (%)", "setting": "[1]; PGx profiled patients (n=67)", "result": "(44) %"}, {"measurement": "PD, no.", "setting": "[1]; PGx profiled patients (n=67)", "result": 30}, {"measurement": "PR, (%)", "setting": "[1]; PGx profiled patients (n=67)", "result": "(2) %"}, {"measurement": "PR, no.", "setting": "[1]; PGx profiled patients (n=67)", "result": 1}, {"measurement": "median overall survival of the predicted resistant patients", "setting": "[1]; [3]", "result": 82, "unit": "days"}, {"measurement": "median overall survival of those classified as responders", "setting": "[1]; [3]", "result": 295, "unit": "days"}, {"measurement": "prevalence of responders", "setting": "relapsed/refractory AML", "result": 18.5, "unit": "%"}]}
